This note sets out measurements from patent US10119972B2, “Reactive labelling compounds and uses thereof” (Academia Sinica, priority 2014, dated 2018).

Data set [1] relates to CL1-5 cells. In words: Dual fluorescence labeling in cells (SPAAC with CuAAC), confocal microscopy. It is filed as cell-based. The settings on record: CL1-5 cells with Ac4ManNAl and Ac4GlcNAz; 100 μM coumOCT, 0.1 μM AzBOCEt. As for the experimental part:
A dual-labeling experiment was performed using SPAAC in combination with CuAAC for the concurrent fluorescence labeling of two different metabolically incorporated glycoconjugates. Peracetylated N-acetylmannosamine (Ac4ManNAc) and peracetylated N-acetylglucosamine (Ac4GlcNAc) were employed as the control sugars. ManNAc is converted metabolically to sialic acid that is found as a terminal monosaccharide of glycoproteins and glycolipids in cell, whereas GlcNAz is an internal monosaccharide that abundant in the N- and O-linked glycans produced in the endoplasmic reticulum and Golgi. CL1-5 cells were incubated in the presence of both alkyne-containing sugar (Ac4ManNAl) and azido-containing sugar (Ac4GlcNAz) for three days. The cells were stained by SPAAC with coumOCT (for azido sugars), followed by CuAAC with AzBOCEt^6j (for alkynyl sugars), and investigated by confocal microscopy (FIG. 24).
(A) Illustration of the cell labeling experiments using Ac4ManNAl, Ac4GlcNAz, 101 and AzBOCEt. CL1-5 cells were incubated with 100 μM of Ac4ManNAl and Ac4GlcNAz or control sugars (Ac4ManNAc and Ac4GlcNAc) for 3 days, which were treated with 100 μM of probe 101 for 0.5 h under SPAAC conditions, and then incubated with 0.1 μM of AzBOCEt for 1 h under CuAAC conditions. (B) Dual fluorescence imaging in CL1-5 cells. […]

In data set [2] the test system is CL1-5 cells. In words: Live cell imaging of azido-glycoconjugates, no-wash and no-fixation. It is filed as cell-based. As to conditions: for cell permeability: live CL1-5 cells, intracellular labeling. How it is done: The performance of 101 in live cell imaging was evaluated. For this purpose, highly sialylated lung cancer cells, CL1-5, were cultured in the presence of peracetylated N-azidoacetylmannosamine (Ac4ManNAz) for 3 days to metabolically produce the azido-sialic acid expressed cells. As a negative control, CL1-5 cells were grown in the presence of peracetylated N-acetylmannosamine (Ac4ManNAc). A time course experiment was conducted by exposing the cells at 30-min intervals under no-wash and no-fixation conditions (FIG. 19, FIG. 22). […] Furthermore, the localization of azido-containing glycoconjugates in living cells was visualized by confocal microscopy. The cells labeled by probe 101 were subsequently stained with anti-GRASP65 followed by FITC-conjugated anti-rabbit for Golgi and propidium iodide (PI, a nuclei marker).
Toward this goal, CL1-5 cells were incubated with Ac4ManNAz for 1 h and subsequently removed excess Ac4ManNAz. We then performed the imaging to monitor the trafficking of the sialylated glycoconjugates. […] However, the appearance of blue fluorescence signal was detected on the cell surface after 5 h. The intensity of fluorescence increased over time, and reached saturation at 8 h (FIG. 21 and FIG. 23).
To observe the fluorescence labeled azido-glycoconjugates in cells, CL1-5 cells were seeded on chamber slide (2.5×10^4 cells/0.5 mL per wells) and incubated in culture medium (RPMI-1640 supplemented with 10% FBS, 100 U/mL penicillin, 100 μg/mL streptomycin, 1 mM L-glutamine and 1 mM sodium pyruvate) with either 200 μM of control sugar (peracetylated N-acetylmannosamine, Ac4ManNAc) or azido-sugar (peracetylated N-azidoacetylmannosamine, Ac4ManNAz) for 3 days.
For Time-lapse imaging of live cells, experiments were carried out using a confocal microscope (TCS-SP5-MP-SMD, Leica) equipped with an incubator to keep the cells in culture conditions. Prewashed cells were incubated with 100 μM of probe 101 in PBS with 10% DMSO and fluorescence imaging of live cells from the previous experiment over 1.5 h. The images were acquired at 450 nm emission and in 5-min intervals.
To observe the fluorescence labeled sialylconjugates in cells dependent on different time, CL1-5 cells were seeded on chamber slide (2.5×10^4 cells/0.5 mL per wells) and incubated in culture medium (RPMI-1640 supplemented with 10% FBS, 100 U/mL penicillin, 100 μg/mL streptomycin, 1 mM L-glutamine and 1 mM sodium pyruvate) with 500 μM of azido-sugar (peracetylated N-azidoacetylmannosamine, Ac4ManNAz) for 1 h. Cells were washed three times with PBS and then incubated in culture medium. […] For fluorescence imaging of live cells, experiments were carried out using a confocal microscope (TCS-SP5-MP-SMD, Leica) equipped with an incubator to keep the cells in culture conditions.

Turning to `O=c1ccc2cc3c(cc2o1)C#CCCCC3` [Compound 101, 6,7,8,9-Tetrahydro-10,11-didehydro-cycloocta[g]chromen-2(2H)-one], in data set [1], the “localization of labeled glycoconjugates” value is “shown only in the cytosol”. In data set [2] (Ac4ManNAz treated CL1-5 cells, 100 μM probe, no-wash and no-fixation), the “incubation time to saturation of fluorescence intensity” value worked out at 1.5 h. Further, the background labeling result in data set [2] (control cells grown with Ac4ManNAc) was “background labeling is negligible”. The results for the cell permeability entry in data set [2] and in data set [2] (listed as coumOCT) were “cell-permeable” and “cell-permeable probe”, respectively.
